# ChEMBL document CHEMBL1671851, “Population pharmacokinetics of rifampin in pulmonary tuberculosis patients, including a semimechanistic model to describe variable absorption” (Antimicrob Agents Chemother, 2008)
# Experiments:
# Homo sapiens [1] = assay: AUC (0 to 24 hrs) in south african pulmonary tuberculosis patient with body weight >50 kg at 600 mg/day, po; type: ADME, organism-based, Plasma; set-up: time < 24 hr, dose 600 mg/day, route oral; settings: in vivo
# Homo sapiens [2] = assay: AUC (0 to 12 hrs) in kenyan pulmonary tuberculosis patient coinjected with HIV with body weight <=45 kg at 450 mg/day, po; type: ADME, organism-based, Plasma; set-up: time < 12 hr, dose 450 mg/day, route oral; settings: in vivo
# [3] = Apparent oral clearance in pulmonary tuberculosis patient in Sequential 0 order and first order model; type: ADME, organism-based; settings: human, in vivo
# Homo sapiens [4] = species: Homo sapiens; assay: Absorption rate constant in pulmonary tuberculosis patient in Sequential 0 order and first order model; type: ADME, organism-based; settings: in vivo
# [5] = Apparent volume of distribution in pulmonary tuberculosis patient in first order model; type: ADME, organism-based; settings: human, in vivo; read-out: Vz
# Homo sapiens [6] = assay: AUC (0 to 10 hrs) in north american pulmonary tuberculosis patient coinjected with HIV with body weight <=50 kg at 450 mg/day, po; type: ADME, organism-based, Plasma; set-up: time < 10 hr, dose 450 mg/day, route oral; settings: in vivo
# Homo sapiens [7] = assay: AUC (0 to infinity) in indian pulmonary tuberculosis patient coinjected with HIV at 450 mg/day, po; type: ADME, organism-based, Plasma; set-up: dose 450 mg/day, time infinity, route oral; settings: in vivo
# Homo sapiens [8] = assay: AUC (0 to infinity) in indian pulmonary tuberculosis patient at 450 mg/day, po; type: ADME, organism-based, Plasma; set-up: dose 450 mg/day, route oral, time infinity; settings: in vivo
# Homo sapiens [9] = assay: AUC (0 to 10 hrs) in north american pulmonary tuberculosis patient coinjected with HIV with body weight >50 kg at 600 mg/day, po; type: ADME, organism-based, Plasma; set-up: time < 10 hr, dose 600 mg/day, route oral; settings: in vivo
# [10] = Apparent oral clearance in pulmonary tuberculosis patient in first order model; type: ADME, organism-based; settings: human, in vivo
# [11] = Apparent volume of distribution in pulmonary tuberculosis patient in first order and lag time model; type: ADME, organism-based; settings: human, in vivo; read-out: Vz
# Homo sapiens [12] = assay: AUC (0 to 12 hrs) in kenyan pulmonary tuberculosis patient with body weight <=45 kg at 450 mg/day, po; type: ADME, organism-based, Plasma; set-up: time < 12 hr, dose 450 mg/day, route oral; settings: in vivo
# Homo sapiens [13] = assay: AUC (0 to 24 hrs) in south african pulmonary tuberculosis patient with body weight <=50 kg at 450 mg/day, po; type: ADME, organism-based, Plasma; set-up: time < 24 hr, dose 450 mg/day, route oral; settings: in vivo
# Homo sapiens [14] = assay: AUC (0 to 12 hrs) in kenyan pulmonary tuberculosis patient coinjected with HIV with body weight >45 kg at 600 mg/day, po; type: ADME, organism-based, Plasma; set-up: time < 12 hr, dose 600 mg/day, route oral; settings: in vivo
# Homo sapiens [15] = species: Homo sapiens; assay: Absorption rate constant in pulmonary tuberculosis patient in transit compartment model; type: ADME, organism-based; settings: in vivo
# Homo sapiens [16] = assay: AUC (0 to 24 hrs) in indonesian pulmonary tuberculosis patient at 600 mg/day, po; type: ADME, organism-based, Plasma; set-up: time < 24 hr, dose 600 mg/day, route oral; settings: in vivo
# [17] = Apparent oral clearance in pulmonary tuberculosis patient in first order and lag time model; type: ADME, organism-based; settings: human, in vivo
# Homo sapiens [18] = species: Homo sapiens; assay: Mean transient time in pulmonary tuberculosis patient in transit compartment model; type: ADME, organism-based; settings: in vivo
# Homo sapiens [19] = species: Homo sapiens; assay: Absorption rate constant in pulmonary tuberculosis patient in first order and lag time model; type: ADME, organism-based; settings: in vivo
# [20] = Apparent volume of distribution in pulmonary tuberculosis patient in transit compartment model; type: ADME, organism-based; settings: human, in vivo; read-out: Vz
# Homo sapiens [21] = assay: AUC (0 to 12 hrs) in german pulmonary tuberculosis patient at 600 mg/day, po; type: ADME, organism-based, Plasma; set-up: dose 600 mg/day, time < 12 hr, route oral; settings: in vivo
# Homo sapiens [22] = species: Homo sapiens; assay: Absorption rate constant in pulmonary tuberculosis patient in first order model; type: ADME, organism-based; settings: in vivo
# [23] = Apparent volume of distribution in pulmonary tuberculosis patient in Sequential 0 order and first order model; type: ADME, organism-based; settings: human, in vivo; read-out: Vz
# [24] = Apparent oral clearance in pulmonary tuberculosis patient in transit compartment model; type: ADME, organism-based; settings: human, in vivo
# Homo sapiens [25] = assay: AUC (0 to 12 hrs) in kenyan pulmonary tuberculosis patient with body weight >45 kg at 600 mg/day, po; type: ADME, organism-based, Plasma; set-up: dose 600 mg/day, time < 12 hr, route oral; settings: in vivo
# Homo sapiens [26] = assay: AUC (0 to 24 hrs) in indonesian pulmonary tuberculosis patient at 450 mg/day, po; type: ADME, organism-based, Plasma; set-up: dose 450 mg/day, time < 24 hr, route oral; settings: in vivo
smiles,measurement,setting,value
CO[C@H]1/C=C/O[C@@]2(C)Oc3c(C)c(O)c4c(O)c(c(/C=N/N5CCN(C)CC5)c(O)c4c3C2=O)NC(=O)/C(C)=C\C=C\[C@H](C)[C@H](O)[C@@H](C)[C@@H](O)[C@@H](C)[C@H](OC(C)=O)[C@@H]1C [RIFAMPIN],AUC,Homo sapiens [1],30700 ng·h/mL
same,AUC,Homo sapiens [2],19600 ng·h/mL
same,CL/F,[3],320 mL/min
same,Ka,Homo sapiens [4],1.23 L/h
same,Vd,[5],52.8 L
same,AUC,Homo sapiens [6],30100 ng·h/mL
same,AUC,Homo sapiens [7],28200 ng·h/mL
same,AUC,Homo sapiens [8],44600 ng·h/mL
same,AUC,Homo sapiens [9],30100 ng·h/mL
same,CL/F,[10],323 mL/min
same,Vd,[11],53.4 L
same,AUC,Homo sapiens [12],23100 ng·h/mL
same,AUC,Homo sapiens [13],30700 ng·h/mL
same,AUC,Homo sapiens [14],19600 ng·h/mL
same,Ka,Homo sapiens [15],1.15 L/h
same,AUC,Homo sapiens [16],79700 ng·h/mL
same,CL/F,[17],337 mL/min
same,MTT,Homo sapiens [18],0.424 h
same,Ka,Homo sapiens [19],1.64 L/h
same,Vd,[20],53.2 L
same,AUC,Homo sapiens [21],60300 ng·h/mL
same,Ka,Homo sapiens [22],1.61 L/h
same,Vd,[23],51.5 L
same,CL/F,[24],320 mL/min
same,AUC,Homo sapiens [25],23100 ng·h/mL
same,AUC,Homo sapiens [26],48500 ng·h/mL
